Reference: ChEMBL document CHEMBL1649380, “Prediction of drug intestinal absorption by new linear and non-linear QSPR” (Eur J Med Chem, 2011)

Experiment: Drug absorption in human assessed as human intestinal absorption rate
Format: ADME, tissue-based, Intestine

`CCc1oc2ccccc2c1C(=O)c1cc(Br)c(O)c(Br)c1` [BENZBROMARONE] and `CC(C(=O)O)c1cccc(C(=O)c2ccccc2)c1` (configuration not stated) [KETOPROFEN] are within 0.2 log units of each other in “log10(%HIA +10)” value: 1.919 for the first, 2.009 for the second.

`CN(C)CCCOc1nn(Cc2ccccc2)c2ccccc12` [BENZYDAMINE] and `Cc1cc(C(=O)NNCc2ccccc2)no1` [ISOCARBOXAZID] are within 0.2 log units of each other in “log10(%HIA +10)” value: 1.987 for the first, 1.903 for the second.

`CC(C)NCC(O)COc1ccc(CCOCC2CC2)cc1` (configuration not stated) [BETAXOLOL] and `CC(C)Cc1ccc(C(C)C(=O)O)cc1` (configuration not stated) [IBUPROFEN] are within 0.2 log units of each other in “log10(%HIA +10)” value: 2 for the first, 2.041 for the second.

`O=c1[nH]c(=O)n([C@H]2C[C@H](O)[C@@H](CO)O2)cc1/C=C/Br` [BRIVUDINE] and `N=c1nc2n(cc1F)[C@@H]1O[C@H](CO)[C@@H](O)[C@@H]1O2` [FLUROCITABINE] are within 0.2 log units of each other in “log10(%HIA +10)” value: 1.58 for the first, 1.623 for the second.

`CN(Cc1cc(Br)cc(Br)c1N)C1CCCCC1` [BROMHEXINE] and `C[C@]12CCC(=O)C=C1CC[C@@H]1[C@@H]2[C@@H](O)C[C@@]2(C)[C@H]1CC[C@]2(O)C(=O)CO` [HYDROCORTISONE] are within 0.2 log units of each other in “log10(%HIA +10)” value: 1.903 for the first, 2.004 for the second.

`CC(C)C[C@H]1C(=O)N2CCC[C@H]2[C@]2(O)O[C@](NC(=O)[C@@H]3C=C4c5cccc6[nH]c(Br)c(c56)C[C@H]4N(C)C3)(C(C)C)C(=O)N12` [BROMOCRIPTINE] and `CN1C[C@H](C(=O)N[C@]2(C)O[C@@]3(O)[C@@H]4CCCN4C(=O)[C@H](Cc4ccccc4)N3C2=O)C[C@@H]2c3cccc4[nH]cc(c34)C[C@H]21` [DIHYDROERGOTAMINE] are within 0.2 log units of each other in “log10(%HIA +10)” value: 1.58 for the first, 1.653 for the second.

`CC(NC(C)(C)C)C(=O)c1cccc(Cl)c1` (configuration not stated) [BUPROPION] and `CCOC(=O)C(C)(C)Oc1ccc(Cl)cc1` [CLOFIBRATE] are the same in “log10(%HIA +10)” value: 1.987 for the first, 1.987 for the second.

`Cn1c(=O)c2c(ncn2C)n(C)c1=O` [CAFFEINE] and `CC(=O)OCC(CCn1cnc2cnc(N)nc21)COC(C)=O` [FAMCICLOVIR] are within 0.2 log units of each other in “log10(%HIA +10)” value: 2.041 for the first, 1.903 for the second.

`C[C@H](CS)C(=O)N1CCC[C@H]1C(=O)O` [CAPTOPRIL] and `CCOC(=O)[C@H](CCc1ccccc1)N[C@@H](C)C(=O)N1CCC[C@H]1C(=O)O.O=C(O)/C=C\C(=O)O` [ENALAPRIL MALEATE] are within 0.2 log units of each other in “log10(%HIA +10)” value: 1.892 for the first, 1.881 for the second.

Compared with `N[C@@H](C(=O)N[C@@H]1C(=O)N2C(C(=O)O)=C(CSc3c[nH]nn3)CS[C@H]12)c1ccc(O)cc1` [CEFATRIZINE], `CO/N=C(\C(=O)N[C@@H]1C(=O)N2C(C(=O)O)=C(COC(N)=O)CS[C@H]12)c1ccco1` [CEFUROXIME] is lower in “log10(%HIA +10)” value: 1.934 for the first, 1.176 for the second.

`CO/N=C(\C(=O)N[C@@H]1C(=O)N2C(C(=O)O)=C(CSc3nc(C)c(CC(=O)O)s3)CS[C@H]12)c1csc(N)n1` [CEFODIZIME] and `CO/N=C(\C(=O)N[C@@H]1C(=O)N2C(C(=O)O)=C(CSc3nc(=O)c(=O)[nH]n3C)CS[C@H]12)c1csc(N)n1` [CEFTRIAXONE] are within 0.2 log units of each other in “log10(%HIA +10)” value: 1 for the first, 1.041 for the second.

`COCC1=C(C(=O)OC(C)OC(=O)OC(C)C)N2C(=O)[C@@H](NC(=O)/C(=N\OC)c3csc(N)n3)[C@H]2SC1` (some centres not stated) [CEFPODOXIME PROXETIL] and `Cc1onc(-c2c(F)cccc2Cl)c1C(=O)N[C@@H]1C(=O)N2[C@@H]1SC(C)(C)[C@@H]2C(=O)O` [FLOXACILLIN] are within 0.2 log units of each other in “log10(%HIA +10)” value: 1.778 for the first, 1.699 for the second.

`O=C(N[C@H](CO)[C@H](O)c1ccc([N+](=O)[O-])cc1)C(Cl)Cl` [CHLORAMPHENICOL] and `O=C(O)Cc1ccccc1Nc1c(Cl)cccc1Cl` [DICLOFENAC] are within 0.2 log units of each other in “log10(%HIA +10)” value: 2 for the first, 2.041 for the second.

Going from `NS(=O)(=O)c1cc2c(cc1Cl)N=CNS2(=O)=O` [CHLOROTHIAZIDE] to `NS(=O)(=O)c1cc2c(cc1Cl)NCNS2(=O)=O` [HYDROCHLOROTHIAZIDE], the “log10(%HIA +10)” value rises from 1.528 to 1.875.

`Nc1ccn(C[C@@H](CO)OCP(=O)(O)O)c(=O)n1.O.O` [CIDOFOVIR] and `Nc1nc(O)c2ncn(COC(CO)CO)c2n1` [GANCICLOVIR] are within 0.2 log units of each other in “log10(%HIA +10)” value: 1.114 for the first, 1.134 for the second.

First: COc1ccc2c3c1O[C@H]1[C@@H](O)C=C[C@H]4[C@@H](C2)N(C)CC[C@@]341 [CODEINE]
Second: COc1cccc2c1C(=O)c1c(O)c3c(c(O)c1C2=O)C[C@@](O)(C(=O)CO)C[C@@H]3O[C@H]1C[C@H](N)[C@H](O)[C@H](C)O1 [DOXORUBICIN]
The “log10(%HIA +10)” value of the first is higher: 2.021 for the first, 1.176 for the second.

Going from `O=C(O)c1cc(=O)c2c(OCC(O)COc3cccc4oc(C(=O)O)cc(=O)c34)cccc2o1` [CROMOLYN] to `NC(=O)OCC(COC(N)=O)c1ccccc1` [FELBAMATE], the “log10(%HIA +10)” value rises from 1.021 to 2.

`N[C@@H]1CON=C1O` [CYCLOSERINE] and `N=C(N)NCC1COc2ccccc2O1` (configuration not stated) [GUANOXAN] are within 0.2 log units of each other in “log10(%HIA +10)” value: 1.919 for the first, 1.778 for the second.

Going from `CO[C@H]1C[C@H](O[C@H]2CC[C@]3(C=O)[C@H]4CC[C@]5(C)[C@@H](C6=CC(=O)OC6)CC[C@]5(O)[C@@H]4CC[C@]3(O)C2)O[C@H](C)[C@H]1O` [CYMARIN] to `NC[C@H]1O[C@H](O[C@H]2[C@H](O)[C@@H](O[C@H]3O[C@H](CO)[C@@H](O)[C@H](N)[C@H]3O)[C@H](N)C[C@@H]2N)[C@H](O)[C@@H](O)[C@@H]1O` [KANAMYCIN], the “log10(%HIA +10)” value falls from 1.756 to 1.041.

Going from `OCCN(CCO)c1nc(N2CCCCC2)c2nc(N(CCO)CCO)nc(N3CCCCC3)c2n1` [DIPYRIDAMOLE] to `CC(=O)N(CC(O)CO)c1c(I)c(C(=O)NCC(O)CO)c(I)c(C(=O)NCC(O)CO)c1I` (configuration not stated) [IOHEXOL], the “log10(%HIA +10)” value falls from 1.833 to 1.176.

`O=C(O)CN(CCN(CC(=O)O)CC(=O)O)CC(=O)O` [EDETIC ACID] and `O=C(COCCOCCOCC(=O)Nc1c(I)cc(I)c(C(=O)O)c1I)Nc1c(I)cc(I)c(C(=O)O)c1I` [IOTROXIC ACID] are the same in “log10(%HIA +10)” value: 1.176 for the first, 1.176 for the second.

`NCCCC(N)(C(=O)O)C(F)F` (configuration not stated) [EFLORNITHINE] and `NC(N)=Nc1nc(CSCCC(N)=NS(N)(=O)=O)cs1` [FAMOTIDINE] are within 0.2 log units of each other in “log10(%HIA +10)” value: 1.813 for the first, 1.681 for the second.

`CC[C@@H](CO)NCCN[C@@H](CC)CO` [ETHAMBUTOL] and `CCc1cccc2c3c([nH]c12)C(CC)(CC(=O)O)OCC3` (configuration not stated) [ETODOLAC] are within 0.2 log units of each other in “log10(%HIA +10)” value: 1.954 for the first, 1.903 for the second.

`OC(Cn1cncn1)(Cn1cncn1)c1ccc(F)cc1F` [FLUCONAZOLE] and `COc1ccc2c(c1)c(CC(=O)O)c(C)n2C(=O)c1ccc(Cl)cc1` [INDOMETHACIN] are within 0.2 log units of each other in “log10(%HIA +10)” value: 2.027 for the first, 2.041 for the second.

`O=C(O)P(=O)(O)O` [FOSCARNET] and `O=CN(O)CCCP(=O)(O)O` [FOSMIDOMYCIN] are within 0.2 log units of each other in “log10(%HIA +10)” value: 1.431 for the first, 1.602 for the second.

Going from `C[C@@H]1O[C@@H]1P(=O)(O)O` [FOSFOMYCIN] to `C[C@@H](O)[C@H]1C(=O)N2C(C(=O)O)=C(SCCN=CN)C[C@H]12` [IMIPENEM ANHYDROUS], the “log10(%HIA +10)” value falls from 1.613 to 1.176.

First: NC[C@@H]1O[C@H](O[C@H]2[C@@H](O)[C@H](O[C@@H]3[C@@H](O)[C@H](N)C[C@H](N)[C@H]3O[C@H]3O[C@H](CN)[C@@H](O)[C@H](O)[C@H]3N)O[C@@H]2CO)[C@H](N)[C@@H](O)[C@@H]1O [FRAMYCETIN]
Second: O=C(c1ccccc1)c1ccc2n1CCC2C(=O)O (configuration not stated) [KETOROLAC]
The “log10(%HIA +10)” value of the first is lower: 1.041 for the first, 2 for the second.

`NS(=O)(=O)c1cc(C(=O)O)c(NCc2ccco2)cc1Cl` [FUROSEMIDE] and `N=C(N)N/N=C/c1c(Cl)cccc1Cl` [GUANABENZ] are within 0.2 log units of each other in “log10(%HIA +10)” value: 1.851 for the first, 1.954 for the second.

With `CNC(=O)c1c(I)c(NC(C)=O)c(I)c(C(=O)O)c1I` [IOTHALAMIC ACID] the “log10(%HIA +10)” value was 1.076.
